Data taken from ChEMBL document CHEMBL1687935, “Ferrocenyl chalcones versus organic chalcones: a comparative study of their nematocidal activity” (Bioorg Med Chem, 2011).
Active and inactive are the calls of the source. The rule behind the calls is not given here.

Assays:
Caenorhabditis elegans [1] = test: Nematocidal activity against Caenorhabditis elegans assessed as inhibition of reproduction on day 3; type: functional
Caenorhabditis elegans [2] = test: Nematocidal activity against Caenorhabditis elegans assessed as mortality on day 3; type: functional; design: concentration or dose not given beside the values
[3] = Inhibition of Globodera rostochiensis hatching; type: functional
[4] = Toxicity against Globodera pallida
[5] = Toxicity against Globodera rostochiensis
[6] = Inhibition of Globodera pallida hatching; type: functional
Plasmodium falciparum = test: Antiplasmodial activity against Plasmodium falciparum; type: functional, organism-based

| SMILES | inhibition (INH) (Caenorhabditis elegans [1]) | Activity (Caenorhabditis elegans [2]) | further results |
| --- | --- | --- | --- |
| O=C(/C=C/c1ccccc1)c1cccc(Cl)c1 | 0% | 100% | – |
| O=C(/C=C/c1ccccc1)c1ccccc1 [CHALCONE] | 0% | 100% | IC50 [3]: 7 mM; LC50 [4]: 33 mM; LC50 [5]: 33 mM; IC50 [6]: 7 mM |
| CCCCOc1ccc(C(=O)/C=C/c2ccccc2)cc1 | – | Active | inhibition (Caenorhabditis elegans [1]): Active |
| O=C(/C=C/c1ccccc1)c1cccs1 | 0% | 100% | – |
| O=C(/C=C/c1ccccc1)c1ccco1 | – | Active | inhibition (Caenorhabditis elegans [1]): Active |
| O=C(/C=C/c1ccccc1)c1ccc(Cl)cc1Cl | 0% | 100% | – |
| O=C(/C=C/c1ccccc1)c1ccccc1Cl | – | Active | inhibition (Caenorhabditis elegans [1]): Active |
| O=C(/C=C/c1ccccc1)c1ccc(F)cc1F | 0% | 100% | – |
| COc1ccc(C(=O)/C=C/c2ccccc2)c(OC)c1 | 0% | 100% | – |
| O=C(/C=C/c1cccnc1)c1ccc(F)cc1 | 0% | 100% | IC50 (Plasmodium falciparum): 0.017 mM |
| CCOc1ccc(C(=O)/C=C/c2ccccc2)cc1 | 0% | 100% | – |
